Numbers after ± are expanded uncertainties.
Experiments:
[1] = wn = mass fraction of the nth substance listed; conditions: Capillary rise
[2] = Capillary rise

CC(F)F [1,1-difluoroethane] + CCC
[1]
Conditions	surface tension liquid-gas [mN/m]
248.15 K, w2 = 0.3497	14.65 ± 0.21
248.24 K, w2 = 0.2008	15.35 ± 0.21
248.37 K, w2 = 0.4922	13.88 ± 0.21
253.14 K, w2 = 0.3497	13.96 ± 0.21
253.15 K, w2 = 0.4922	13.25 ± 0.21
253.19 K, w2 = 0.2008	14.7 ± 0.21
258.1 K, w2 = 0.3497	13.22 ± 0.21
258.1 K, w2 = 0.4922	12.55 ± 0.21
258.15 K, w2 = 0.2008	14.02 ± 0.21
263.1 K, w2 = 0.3497	12.43 ± 0.21
263.18 K, w2 = 0.4922	11.93 ± 0.21
263.19 K, w2 = 0.2008	13.32 ± 0.21
268.13 K, w2 = 0.3497	11.85 ± 0.21
268.16 K, w2 = 0.4922	11.19 ± 0.21
268.19 K, w2 = 0.2008	12.72 ± 0.21
273.08 K, w2 = 0.4922	10.49 ± 0.2
273.15 K, w2 = 0.3497	11.2 ± 0.21
273.19 K, w2 = 0.2008	12.04 ± 0.21
278.16 K, w2 = 0.3497	10.31 ± 0.2
278.18 K, w2 = 0.2008	11.35 ± 0.21
278.18 K, w2 = 0.4922	9.895 ± 0.2
283.16 K, w2 = 0.2008	10.48 ± 0.2
283.16 K, w2 = 0.3497	9.754 ± 0.2
283.18 K, w2 = 0.4922	9.111 ± 0.2
288.15 K, w2 = 0.3497	9.186 ± 0.2
288.17 K, w2 = 0.4922	8.51 ± 0.2
288.18 K, w2 = 0.2008	9.752 ± 0.2
293.13 K, w2 = 0.3497	8.519 ± 0.2
293.16 K, w2 = 0.2008	9.136 ± 0.2
293.16 K, w2 = 0.4922	7.919 ± 0.2
298.1 K, w2 = 0.2008	8.465 ± 0.2
298.1 K, w2 = 0.3497	7.79 ± 0.2
298.15 K, w2 = 0.4922	7.255 ± 0.2
303.15 K, w2 = 0.3497	6.986 ± 0.2
303.18 K, w2 = 0.2008	7.708 ± 0.2
303.2 K, w2 = 0.4922	6.616 ± 0.2
308.11 K, w2 = 0.2008	7.125 ± 0.2
308.11 K, w2 = 0.3497	6.317 ± 0.2
308.46 K, w2 = 0.4922	5.985 ± 0.2
313.16 K, w2 = 0.4922	5.421 ± 0.2
313.18 K, w2 = 0.3497	5.675 ± 0.2
313.19 K, w2 = 0.2008	6.518 ± 0.2
318.13 K, w2 = 0.3497	5.133 ± 0.2
318.14 K, w2 = 0.2008	5.897 ± 0.2
318.14 K, w2 = 0.4922	4.913 ± 0.2
323.16 K, w2 = 0.3497	4.602 ± 0.2
323.17 K, w2 = 0.4922	4.269 ± 0.2
323.18 K, w2 = 0.2008	5.202 ± 0.2
328.12 K, w2 = 0.2008	4.614 ± 0.2
328.12 K, w2 = 0.3497	3.958 ± 0.2
328.15 K, w2 = 0.4922	3.789 ± 0.2

CCC [propane]
[2]
Conditions	surface tension liquid-gas [mN/m]
283.16 K	8.811 ± 0.2
288.17 K	8.134 ± 0.2
293.13 K	7.568 ± 0.2
298.1 K	6.915 ± 0.2
303.12 K	6.349 ± 0.2
